Test results published in patent publication US20240245793A1, “PSD-95 INHIBITORS AND USES THEREOF” (priority 2021, published 2024).
Where two headings read alike, the source gives them in different places.

System: HeLa cells stably expressing HaloGFP
Assay: Chloroalkane penetration assay (CAPA), membrane permeability and cellular uptake
Type: cell-based
From the text: Since PSD-95 is located intracellularly, it is essential for any drug targeting PSD-95 to efficiently cross the cell membrane. To assess the cellular permeability and delivery to the cytosol of the compounds as defined herein, the cellular chloroalkane penetration assay (CAPA) may be used (Peraro et al. 2018). This assay takes advantage of a modified haloalkane dehalogenase designed to covalently bind chloroalkane (CA) molecules. A HeLa cell line expressing a fusion protein comprising a HaloTag, a green fluorescent protein (GFP) and a mitochondria-targeting peptide is used to report cytosolic delivery. The general format of the CAPA is a pulse-chase assay (Deprey & Kritzer, 2020). Cells expressing the HaloTag enzyme are incubated with CA-tagged peptides. When these CA-peptides penetrate the cell membrane and reach the cytosol, they will bind to and react with the HaloTag (pulse step). Following a washing step, the cells are incubated with a CA-tagged dye that quantitatively penetrates the cell membrane and reacts with remaining unreacted HaloTag sites (chase step). Flow cytometry is used to measure the fluorescence intensity of the cells and the measured fluorescence is inversely proportional to the amount of CA-peptides that reach the penetrated the cells and can thus be used to assess cytosolic delivery. The obtained data is commonly expressed as CP50 values, the concentration at which 50% cell penetration is observed. The CP50 value of a compound may be measured as described in example 4.
The membrane permeability of compounds 10 to 75 was determined in HeLa cells stably expressing HaloGFP exclusively located in the cytosol. Cells were seeded at a density of 40.000 cells/well one day prior to the experiment. After the growth media was aspirated and replaced by 100 μL of Opti-MEM, 25 μL of a prepared serial dilution of the ligand in Opti-MEM was added to the cells (constant DMSO concentration), and the plate was incubated for 4 h at 37° C. and 5% CO2. The contents of the wells were aspirated, and cells were washed with fresh Opti-MEM for 15 min. After aspiration of the wash, the cells were incubated with TAMRA-CA (5 μM) for 15 min. After aspiration of the chase solution, cells were washed with Opti-MEM for 30 min. Following removal of the wash, cells were trypsinized, resuspended in PBS (2% FBS), and analyzed using a benchtop flow cytometer. Using no ligand and no TAMRA-CA control well, the obtained fluorescence intensity data was normalized and plotted as dose-response curves. Reported CP50 values represent half-maximum red fluorescence which behaves inverse to cell penetration of the ligand.

[1] = CA-tagged ligands, 4 h at 37° C., L-TAT and L-Arg9, mean ± SEM (Table 10, FIG. 7)

Compound: CC(C)C[C@H](NC(=O)[C@@H](NC(=O)[C@H](CCC(=O)O)NC(=O)[C@H](CCCCN)NC(=O)CCOCCOCCN(CCOCCOCCC(=O)N[C@@H](CCCCN)C(=O)N[C@@H](CCC(=O)O)C(=O)N[C@H](C(=O)N[C@@H](CC(C)C)C(=O)N[C@H](C(=O)O)C(C)C)[C@@H](C)O)C(=O)[C@H](CCCNC(=N)N)NC(=O)[C@H](CCCNC(=N)N)NC(=O)[C@H](CCCNC(=N)N)NC(=O)[C@H](CCCNC(=N)N)NC(=O)[C@H](CCCNC(=N)N)NC(=O)[C@H](CCCNC(=N)N)NC(=O)CCC(=O)NCCOCCOCCCCCCCl)[C@@H](C)O)C(=O)N[C@H](C(=O)O)C(C)C [Compound 70]
- CP50: 0.51 ± 0.08 µM

Compound: CC[C@H](C)[C@H](NC(=O)CCOCCOCCN(CCOCCOCCC(=O)N[C@H](C(=O)N[C@@H](CCC(=O)O)C(=O)N[C@H](C(=O)N[C@@H](CC(=O)O)C(=O)N[C@H](C(=O)O)C(C)C)[C@@H](C)O)[C@@H](C)CC)C(=O)[C@@H](CCCNC(=N)N)NC(=O)[C@H](CCCNC(=N)N)NC(=O)[C@@H](CCCCN)NC(=O)[C@H](CCCCN)NC(=O)[C@@H](CCCNC(=N)N)NC(=O)CNC(=O)[C@@H](CCCNC(=N)N)NC(=O)[C@H](CCCNC(=N)N)NC(=O)[C@@H](CCCNC(=N)N)NC(=O)CCC(=O)NCCOCCOCCCCCCCl)C(=O)N[C@@H](CCC(=O)O)C(=O)N[C@H](C(=O)N[C@@H](CC(=O)O)C(=O)N[C@H](C(=O)O)C(C)C)[C@@H](C)O [Compound 41]
- CP50: 180 ± 8.2 µM

Compound: CC[C@H](C)[C@H](NC(=O)CCOCCOCCN(CCOCCOCCC(=O)N[C@H](C(=O)N[C@@H](CCC(=O)O)C(=O)N[C@H](C(=O)N[C@@H](CC(=O)O)C(=O)N[C@H](C(=O)O)C(C)C)[C@@H](C)O)[C@@H](C)CC)C(=O)[C@@H](CCCNC(=N)N)NC(=O)[C@@H](CCCCN)NC(=O)[C@@H](CCCCN)NC(=O)[C@@H](CCCNC(=N)N)NC(=O)[C@@H](CCCNC(=N)N)NC(=O)[C@@H](CCC(N)=O)NC(=O)[C@@H](CCCNC(=N)N)NC(=O)[C@@H](CCCNC(=N)N)NC(=O)[C@@H](CCCNC(=N)N)NC(=O)CCC(=O)NCCOCCOCCCCCCCl)C(=O)N[C@@H](CCC(=O)O)C(=O)N[C@H](C(=O)N[C@@H](CC(=O)O)C(=O)N[C@H](C(=O)O)C(C)C)[C@@H](C)O [Compound 43]
- CP50: 221 ± 36 µM

Compound: CC[C@H](C)[C@H](NC(=O)CCOCCOCCN(CCOCCOCCC(=O)N[C@H](C(=O)N[C@@H](CCC(=O)O)C(=O)N[C@H](C(=O)N[C@@H](CC(=O)O)C(=O)N[C@H](C(=O)O)C(C)C)[C@@H](C)O)[C@@H](C)CC)C(=O)[C@@H](CCCNC(=N)N)NC(=O)[C@@H](CCCNC(=N)N)NC(=O)[C@@H](CCCNC(=N)N)NC(=O)[C@@H](CCC(N)=O)NC(=O)[C@@H](CCCNC(=N)N)NC(=O)[C@@H](CCCNC(=N)N)NC(=O)[C@@H](CCCCN)NC(=O)[C@@H](CCCCN)NC(=O)[C@@H](CCCNC(=N)N)NC(=O)CNC(=O)[C@@H](Cc1ccc(O)cc1)NC(=O)CCC(=O)NCCOCCOCCCCCCCl)C(=O)N[C@@H](CCC(=O)O)C(=O)N[C@H](C(=O)N[C@@H](CC(=O)O)C(=O)N[C@H](C(=O)O)C(C)C)[C@@H](C)O [Compound 39]
- CP50 (CA-tagged NPEG4-(IETDV)2 with various CPP-tags, 4 h at 37° C., mean ± SEM (Table 11, FIG. 8)): 10.7 ± 0.7 µM

Compound: CC(C)[C@H](NC(=O)[C@@H](NC(=O)[C@@H](NC(=O)[C@H](CCC(=O)O)NC(=O)[C@@H](NC(=O)CCOCCOCCN(CCOCCOCCC(=O)N[C@H](C(=O)N[C@@H](CCC(=O)O)C(=O)N[C@H](C(=O)N[C@H](C(=O)N[C@H](C(=O)O)C(C)C)C(C)C)[C@@H](C)O)C(C)C)C(=O)[C@H](CCCNC(=N)N)NC(=O)[C@H](CCCNC(=N)N)NC(=O)[C@H](CCCNC(=N)N)NC(=O)[C@H](CCC(N)=O)NC(=O)[C@H](CCCNC(=N)N)NC(=O)[C@H](CCCNC(=N)N)NC(=O)[C@H](CCCCN)NC(=O)[C@H](CCCCN)NC(=O)[C@H](CCCNC(=N)N)NC(=O)CNC(=O)[C@H](Cc1ccc(O)cc1)NC(=O)CCC(=O)NCCOCCOCCCCCCCl)C(C)C)[C@@H](C)O)C(C)C)C(=O)O [Compound 22]
- CP50 [1]: 86.1 ± 4.5 µM

Compound: CC(C)[C@H](NC(=O)[C@@H](NC(=O)[C@@H](NC(=O)[C@H](CCC(=O)O)NC(=O)[C@@H](NC(=O)CCOCCOCCN(CCOCCOCCC(=O)N[C@H](C(=O)N[C@@H](CCC(=O)O)C(=O)N[C@H](C(=O)N[C@H](C(=O)N[C@H](C(=O)O)C(C)C)C(C)C)[C@@H](C)O)C(C)C)C(=O)[C@H](CCCNC(=N)N)NC(=O)[C@H](CCCNC(=N)N)NC(=O)[C@H](CCCNC(=N)N)NC(=O)[C@H](CCCNC(=N)N)NC(=O)[C@H](CCCNC(=N)N)NC(=O)[C@H](CCCNC(=N)N)NC(=O)[C@H](CCCNC(=N)N)NC(=O)[C@H](CCCNC(=N)N)NC(=O)[C@H](CCCNC(=N)N)NC(=O)CCC(=O)NCCOCCOCCCCCCCl)C(C)C)[C@@H](C)O)C(C)C)C(=O)O [Compound 34]
- CP50: 0.84 ± 0.15 µM

Compound: CC(C)[C@H](NC(=O)[C@H](CCCNC(=N)N)NC(=O)[C@@H](NC(=O)[C@H](CCC(=O)O)NC(=O)[C@H](CCCCN)NC(=O)CCOCCOCCN(CCOCCOCCC(=O)N[C@@H](CCCCN)C(=O)N[C@@H](CCC(=O)O)C(=O)N[C@H](C(=O)N[C@@H](CCCNC(=N)N)C(=O)N[C@H](C(=O)O)C(C)C)[C@@H](C)O)C(=O)[C@H](CCCNC(=N)N)NC(=O)[C@H](CCCNC(=N)N)NC(=O)[C@H](CCCNC(=N)N)NC(=O)[C@H](CCCNC(=N)N)NC(=O)[C@H](CCCNC(=N)N)NC(=O)[C@H](CCCNC(=N)N)NC(=O)[C@H](CCCNC(=N)N)NC(=O)[C@H](CCCNC(=N)N)NC(=O)[C@H](CCCNC(=N)N)NC(=O)CCC(=O)NCCOCCOCCCCCCCl)[C@@H](C)O)C(=O)O [Compound 30]
- CP50: 0.68 ± 0.05 µM

Compound: CC[C@H](C)[C@H](NC(=O)CCOCCOCCN(CCOCCOCCC(=O)N[C@H](C(=O)N[C@@H](CCC(=O)O)C(=O)N[C@H](C(=O)N[C@@H](CC(=O)O)C(=O)N[C@H](C(=O)O)C(C)C)[C@@H](C)O)[C@@H](C)CC)C(=O)[C@@H](CCCNC(=N)N)NC(=O)[C@@H](CCCNC(=N)N)NC(=O)[C@@H](CCCNC(=N)N)NC(=O)[C@@H](CCCNC(=N)N)NC(=O)[C@@H](CCCNC(=N)N)NC(=O)[C@@H](CCCNC(=N)N)NC(=O)[C@@H](CCCNC(=N)N)NC(=O)[C@@H](CCCNC(=N)N)NC(=O)[C@@H](CCCNC(=N)N)NC(=O)CCC(=O)NCCOCCOCCCCCCCl)C(=O)N[C@@H](CCC(=O)O)C(=O)N[C@H](C(=O)N[C@@H](CC(=O)O)C(=O)N[C@H](C(=O)O)C(C)C)[C@@H](C)O [Compound 45]
- CP50: 161 ± 25 µM

Compound: CC(C)[C@H](NC(=O)[C@@H](NC(=O)[C@@H](NC(=O)[C@H](CCC(=O)O)NC(=O)[C@H](CCCCN)NC(=O)CCOCCOCCN(CCOCCOCCC(=O)N[C@@H](CCCCN)C(=O)N[C@@H](CCC(=O)O)C(=O)N[C@H](C(=O)N[C@H](C(=O)N[C@H](C(=O)O)C(C)C)C(C)C)[C@@H](C)O)C(=O)[C@H](CCCNC(=N)N)NC(=O)[C@H](CCCNC(=N)N)NC(=O)[C@H](CCCNC(=N)N)NC(=O)[C@H](CCCNC(=N)N)NC(=O)[C@H](CCCNC(=N)N)NC(=O)[C@H](CCCNC(=N)N)NC(=O)[C@H](CCCNC(=N)N)NC(=O)[C@H](CCCNC(=N)N)NC(=O)[C@H](CCCNC(=N)N)NC(=O)CCC(=O)NCCOCCOCCCCCCCl)[C@@H](C)O)C(C)C)C(=O)O [Compound 28]
- CP50: 0.79 ± 0.06 µM

Compound: CC(C)[C@H](NC(=O)[C@@H](NC(=O)[C@@H](NC(=O)[C@H](CCC(=O)O)NC(=O)[C@H](CCCCN)NC(=O)CCOCCOCCN(CCOCCOCCC(=O)N[C@@H](CCCCN)C(=O)N[C@@H](CCC(=O)O)C(=O)N[C@H](C(=O)N[C@H](C(=O)N[C@H](C(=O)O)C(C)C)[C@@H](C)O)[C@@H](C)O)C(=O)[C@H](CCCNC(=N)N)NC(=O)[C@H](CCCNC(=N)N)NC(=O)[C@H](CCCNC(=N)N)NC(=O)[C@H](CCC(N)=O)NC(=O)[C@H](CCCNC(=N)N)NC(=O)[C@H](CCCNC(=N)N)NC(=O)[C@H](CCCCN)NC(=O)[C@H](CCCCN)NC(=O)[C@H](CCCNC(=N)N)NC(=O)CNC(=O)[C@H](Cc1ccc(O)cc1)NC(=O)CCC(=O)NCCOCCOCCCCCCCl)[C@@H](C)O)[C@@H](C)O)C(=O)O [Compound 14]
- CP50 [1]: 78.4 ± 3.9 µM

Compound: CC[C@H](C)[C@H](NC(=O)CCOCCOCCN(CCOCCOCCC(=O)N[C@H](C(=O)N[C@@H](CCC(=O)O)C(=O)N[C@H](C(=O)N[C@@H](CC(=O)O)C(=O)N[C@H](C(=O)O)C(C)C)[C@@H](C)O)[C@@H](C)CC)C(=O)[C@H](CCCCNC(=O)CCC(=O)NCCOCCOCCCCCCCl)NC(=O)CCCNC(=O)CC[C@@H]1NC(=O)[C@@H](CCCNC(=N)N)NC(=O)[C@H](CCCNC(=N)N)NC(=O)[C@@H](CCCNC(=N)N)NC(=O)[C@H](CCCNC(=N)N)NC(=O)[C@H](Cc2ccc3ccccc3c2)NC(=O)[C@@H](Cc2ccccc2)NC(=O)[C@H](Cc2ccccc2)NC1=O)C(=O)N[C@@H](CCC(=O)O)C(=O)N[C@H](C(=O)N[C@@H](CC(=O)O)C(=O)N[C@H](C(=O)O)C(C)C)[C@@H](C)O [Compound 63]
- CP50: 11.2 ± 0.7 µM
